Laboratory results: PMC12120022, “Discovery and chemical optimisation of a potent, Bi-cyclic antimicrobial inhibitor of Escherichia coli PBP3” (Communications Biology, 2025)
Where a SMILES comes first, the peptide text is derived from it.

Assays:
EcPBP3 [1] = target: T1, EcPBP3 (Escherichia coli, UniProt P0AD68); assay: Fluorescence polarisation competition assay with BOCILLIN-FL as tracer; format: binding; conditions: competition format, NB, non-binder (100 μM top concentration); for IC50: read-out: IC50 (nM) by fluorescence polarisation with Bocillin FL as tracer, Geometric mean (Lower 95% CI of geo. Mean; Upper 95% CI of geo. Mean, n=number of values)
T1 construct: For assays, selections and SPR a construct with residues 60–588 which has the N-terminal domain, but not the transmembrane helix, was used; made in house
T1 sequence (P0AD68 60-588): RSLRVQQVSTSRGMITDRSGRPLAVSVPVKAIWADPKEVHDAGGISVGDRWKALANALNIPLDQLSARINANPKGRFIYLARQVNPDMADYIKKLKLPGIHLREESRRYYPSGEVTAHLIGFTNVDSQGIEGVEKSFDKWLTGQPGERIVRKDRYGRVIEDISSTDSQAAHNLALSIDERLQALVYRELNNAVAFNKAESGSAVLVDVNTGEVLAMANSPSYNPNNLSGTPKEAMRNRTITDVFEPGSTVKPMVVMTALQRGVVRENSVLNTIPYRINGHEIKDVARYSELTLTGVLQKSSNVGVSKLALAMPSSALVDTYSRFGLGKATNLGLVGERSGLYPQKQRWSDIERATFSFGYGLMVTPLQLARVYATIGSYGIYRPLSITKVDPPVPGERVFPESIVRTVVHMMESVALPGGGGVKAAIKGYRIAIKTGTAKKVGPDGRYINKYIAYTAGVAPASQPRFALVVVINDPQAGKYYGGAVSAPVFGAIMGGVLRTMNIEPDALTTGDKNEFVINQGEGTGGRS
Experimental: Binding of output peptides to EcPBP3 was evaluated using a fluorescence polarisation (FP) assay.
[…] 10 µL of protein (9.4 nM) was mixed with either 5 µL of peptide or 5 µL of buffer and then the assay was initiated by the addition of 10 µL of tracer (1 nM) (final volume 25 µL), in a black 384 low bind, low volume plate (Corning). The buffer was 10 mM HEPES (Sigma), 2% (v/v) glycerol (Sigma), 300 mM NaCl (Sigma), adjusted to pH 8. The plate was incubated for 1 h at 25 °C and then read in a PHERAstar FS (BMG) using with an “FP 485 520 520” optic module (excitation 485 nm, emission 520 nm). The gain was determined immediately prior to the read on a tracer-only well.
Dotmatics (Dotmatics) workflows performing the above calculations were used to process the data. Values quoted are the geometric means of at least 2 repeats.

E. coli GKCW102 (EcPore) = conditions: caMHB; biological replicates or their range
Experimental: To evaluate the engagement of EcPBP3 by a bicyclic peptide in whole cells lacking the outer membrane permeability barrier, peptides were screened in ‘hyperporinated’ E. coli strains in which a constitutively open FhuA pore (FhuAΔC/Δ4L, lacking N-terminal cork domain and external loops) was chromosomally expressed under control of an arabinose-inducible promoter.
Minimal inhibition concentration (MIC) assays were performed in accordance with CLSI standards, using cation-adjusted Mueller Hinton broth (caMHB; Sigma Aldrich) unless otherwise specified. Induction of pore expression in hyperporinated strains E. coli GKCW101 and GKCW102 was performed by addition of 0.1% (w/v) L-arabinose to cultures at OD600 ~ 0.3, with caMHB as the culture medium.

EcPBP3 [2] = target: T1, EcPBP3; assay: SPR binding assay on immobilised EcPBP3; conditions: 37 °C, kinetic fitting; NB = no binding at 2500 nM (Tables S-4, S-5) or 5000 nM (Table 1); read-out: Kd (nM) by SPR (geomean)
Experimental: Surface plasmon resonance (SPR) assays were performed using EcPBP3 immobilized on CM5 sensor chips (GE Healthcare) via amine-coupling chemistry in assay buffer (10 mM HEPES pH 8.0, 200 mM NaCl, 0.05% (v/v) surfactant P20). The chip surface was activated by injection (10 μL min^–1) of 0.4 M EDC and 0.1 M NHS (in a 1:1 ratio) with a 7 min contact time. Protein was diluted to 25 μg mL^–1 in 10 mM MOPS (pH 7.0) and injected over the activated sensor chip surface to reach immobilization of 1500-2500 response units. Excess hydroxysuccinimidyl groups on the chip surface were deactivated by injection (10 μL min^–1) of 1 M ethanolamine hydrochloride pH 8.0 with a 7 min contact time. Reference flow cells were prepared as described, but without ligand (EcPBP3 protein).
Binding analysis runs were performed at 37 °C in running buffer (10 mM HEPES pH 8.0, 200 mM NaCl, 0.05% (w/v) Tween-20, 2% (v/v) DMSO). Test compounds (and control runs of buffer only) were injected in running buffer over the EcPBP3 chip and reference flow cell, at flow rate of 50 μL min^–1 for 150 s contact time and 2400 s dissociation time. Each injection was followed by a wash with 50% (v/v) DMSO. All compounds were tested in at least two independent biological replicates unless otherwise stated.
Raw sensorgrams data were solvent-corrected, reference-subtracted and blank-buffer-subtracted (double-referencing) before kinetic and affinity analysis to account for non-specific binding and injection artifacts. Equilibrium dissociation constant (Kd) values was determined using the Biacore™ Insight Evaluation Software (version 4.0.8 or version 5.0.17) using kinetic fitting. Kd values presented are the geometric mean of at least two biological replicates.

Mouse blood stability = format: in vitro ADME, CD-1 mice; conditions: CD-1, mouse, whole blood (EDTA as anticoagulant), 37 °C, SAR peptides, read-out: Blood stability (t1/2) (converted)
Experimental: Stability assays were performed using freshly collected matrices from CD-1 mice, with anticoagulant as stated per dataset. Compound stocks in DMSO were tested at 5 μM final concentration (0.5% (v/v) DMSO). Compounds were incubated in blood or plasma at 37 °C for 24 h, with sampling at 0, 1, 2, 4, 6 and 24 h. Samples were prepared via protein precipitation using organic solvent containing internal standard, and analyzed by LC-MS/MS. Compound remaining was quantified based on the ratio of analyte to internal standard, and the half-life (t1/2) was calculated from a log linear plot of % remaining versus time.

SMILES	IC50 (EcPBP3 [1]) [nM]	half-life at 5 μM (Mouse blood stability) [h]	further results
C[C@H](N)C(=O)N[C@H]1CSCCC(=O)N2CN3CN(C2)C(=O)CCSC[C@H](NC(=O)CNC(=O)[C@H](Cc2ccccc2)NC(=O)[C@H]([C@@H](C)O)NC(=O)[C@H](CCCNC(=N)N)NC1=O)C(=O)N[C@@H](Cc1c[nH]c2ccccc12)C(=O)N[C@@H](Cc1c[nH]c2ccccc12)C(=O)N[C@@H](CCC(=O)O)C(=O)NCC(=O)N[C@H](C(=O)N[C@@H](C)C(N)=O)CSCCC3=O [Peptide 5]	1550		IC50 (nM) by fluorescence polarisation with Bocillin FL as tracer, Geometric mean (Lower 95% CI of geo. Mean; Upper 95% CI of geo. Mean, n=number of values) (EcPBP3 [1]): showed binding to EcPBP3; MIC E. coli GKCW102 (EcPore) (E. coli GKCW102 (EcPore)): limited activity; Kd (EcPBP3 [2]): 369 nM
CC(C)[C@@H]1NC(=O)[C@H](Cc2c[nH]c3ccccc23)NC(=O)[C@@H]2CCCN2C(=O)[C@@H]2CSCCC(=O)N3CN(CN(C3)C(=O)CCSC[C@H](N)C(=O)N[C@@H](CO)C(=O)N[C@@H](Cc3ccccc3)C(=O)N3CCC[C@H]3C(=O)N[C@@H](CCCCNC(=N)N)C(=O)N2)C(=O)CCSC[C@@H](C(=O)N[C@@H](C)C(N)=O)NC(=O)CNC(=O)[C@H](CCC(=O)O)NC1=O [Peptide 71] (HELM PEPTIDE1{C.S.F.P.[N=C(N)NCCCC[C@H](N[*:1])C(=O)[*:2]].C.P.W.V.E.G.C.A.[am]}|CHEM1{[O=C(CC[*:1])N1CN(C(=O)CC[*:2])CN(C(=O)CC[*:3])C1]}$PEPTIDE1,CHEM1,1:R3-1:R1|PEPTIDE1,CHEM1,6:R3-1:R2|PEPTIDE1,CHEM1,12:R3-1:R3$$$V2.0)		5.7	
CC(=O)N[C@@H](C)C(=O)N[C@H]1CSCCC(=O)N2CN3CN(C2)C(=O)CCSC[C@H](NC(=O)[C@H](CCCCNC(=N)N)NC(=O)[C@@H]2CCCN2C(=O)[C@H](Cc2ccccc2)NC(=O)[C@H](CO)NC1=O)C(=O)N1CCC[C@H]1C(=O)N[C@@H](Cc1c[nH]c2ccccc12)C(=O)N[C@@H](C(C)C)C(=O)N[C@@H](CCC(=O)O)C(=O)NCC(=O)N[C@H](C(=O)N[C@@H](C)C(N)=O)CSCCC3=O [Peptide 73]		14.1	
CC(C)[C@@H]1NC(=O)[C@H](Cc2c[nH]c3ccccc23)NC(=O)[C@@H]2CCCN2C(=O)[C@@H]2CSCCC(=O)N3CN(CN(C3)C(=O)CCSC[C@H](N)C(=O)N[C@@H](CO)C(=O)N[C@@H](Cc3ccccc3)C(=O)N3CCC[C@H]3C(=O)N[C@@H](CCCCNC(=N)N)C(=O)N2)C(=O)CCSC[C@@H](C(N)=O)NC(=O)CNC(=O)[C@H](CCC(=O)O)NC1=O [Peptide 72, CSFP[HArg]CPWVEGC] (HELM PEPTIDE1{C.S.F.P.[N=C(N)NCCCC[C@H](N[*:1])C(=O)[*:2]].C.P.W.V.E.G.C.[am]}|CHEM1{[O=C(CC[*:1])N1CN(C(=O)CC[*:2])CN(C(=O)CC[*:3])C1]}$PEPTIDE1,CHEM1,1:R3-1:R1|PEPTIDE1,CHEM1,6:R3-1:R2|PEPTIDE1,CHEM1,12:R3-1:R3$$$V2.0)		3	
C[C@H](N)C(=O)N[C@H]1CSCCC(=O)N2CN3CN(C2)C(=O)CCSC[C@H](NC(=O)[C@H](CCCCN)NC(=O)[C@@H]2CCCN2C(=O)[C@H](Cc2ccccc2)NC(=O)[C@H](CO)NC1=O)C(=O)N1CCC[C@H]1C(=O)N[C@@H](Cc1c[nH]c2ccccc12)C(=O)N[C@H](C)C(=O)N[C@@H](CCC(=O)O)C(=O)NCC(=O)N[C@H](C(=O)N[C@@H](C)C(N)=O)CSCCC3=O [Peptide 69] (HELM PEPTIDE1{A.C.S.F.P.K.C.P.W.[dA].E.G.C.A.[am]}|CHEM1{[O=C(CC[*:1])N1CN(C(=O)CC[*:2])CN(C(=O)CC[*:3])C1]}$PEPTIDE1,CHEM1,2:R3-1:R1|PEPTIDE1,CHEM1,7:R3-1:R2|PEPTIDE1,CHEM1,13:R3-1:R3$$$V2.0)			MIC E. coli GKCW102 (EcPore) (E. coli GKCW102 (EcPore)): > 16 µg/mL; Kd (EcPBP3 [2]): > 2500 nM
CC(C)C[C@@H]1NC(=O)[C@@H](NC(=O)[C@H](C)N)CSCCC(=O)N2CN3CN(C2)C(=O)CCSC[C@H](NC(=O)[C@H](CC(N)=O)NC(=O)[C@H](CCC(=O)O)NC1=O)C(=O)N[C@@H](Cc1ccc(O)cc1)C(=O)N[C@@H](Cc1ccc(O)cc1)C(=O)N[C@@H](C(C)C)C(=O)N1CCC[C@H]1C(=O)N[C@@H](Cc1ccc(O)cc1)C(=O)N[C@@H](Cc1ccc(O)cc1)C(=O)NCC(=O)N[C@@H](Cc1ccc(O)cc1)C(=O)N[C@@H](C)C(=O)N[C@H](C(=O)N[C@@H](C)C(N)=O)CSCCC3=O [Peptide 13] (HELM PEPTIDE1{A.C.L.E.N.C.Y.Y.V.P.Y.Y.G.Y.A.C.A.[am]}|CHEM1{[O=C(CC[*:1])N1CN(C(=O)CC[*:2])CN(C(=O)CC[*:3])C1]}$PEPTIDE1,CHEM1,2:R3-1:R1|PEPTIDE1,CHEM1,6:R3-1:R2|PEPTIDE1,CHEM1,16:R3-1:R3$$$V2.0)	3800		IC50 (nM) by fluorescence polarisation with Bocillin FL as tracer, Geometric mean (Lower 95% CI of geo. Mean; Upper 95% CI of geo. Mean, n=number of values) (EcPBP3 [1]): showed binding to EcPBP3
CC(C)C[C@@H]1NC(=O)[C@H](CCC(=O)O)NC(=O)[C@@H]2CCCN2C(=O)[C@@H]2CCCN2C(=O)[C@H](CC(C)C)NC(=O)CNC(=O)[C@@H]2CCCN2C(=O)[C@H](Cc2ccc(O)cc2)NC(=O)[C@@H](NC(=O)[C@H](C)N)CSCCC(=O)N2CN3CN(C2)C(=O)CCSC[C@H](NC1=O)C(=O)N[C@@H](CO)C(=O)N1CCC[C@H]1C(=O)N[C@@H](CO)C(=O)N[C@@H](Cc1ccccc1)C(=O)N[C@H](C(=O)N[C@@H](C)C(N)=O)CSCCC3=O [Peptide 10] (HELM PEPTIDE1{A.C.Y.P.G.L.P.P.E.L.C.S.P.S.F.C.A.[am]}|CHEM1{[O=C(CC[*:1])N1CN(C(=O)CC[*:2])CN(C(=O)CC[*:3])C1]}$PEPTIDE1,CHEM1,2:R3-1:R1|PEPTIDE1,CHEM1,11:R3-1:R2|PEPTIDE1,CHEM1,16:R3-1:R3$$$V2.0)	> 100000		
CC[C@H](C)[C@@H]1NC(=O)[C@@H](NC(=O)[C@H](C)N)CSCCC(=O)N2CN3CN(C2)C(=O)CCSC[C@H](NC(=O)[C@H](CCCNC(=N)N)NC(=O)[C@H](CCC(=O)O)NC(=O)[C@H](CCCNC(=N)N)NC1=O)C(=O)N[C@@H](Cc1c[nH]c2ccccc12)C(=O)N[C@@H](CC(=O)O)C(=O)N[C@@H](CC(C)C)C(=O)N[C@@H](CCCCN)C(=O)N[C@@H](CCC(=O)O)C(=O)N[C@@H](CC(N)=O)C(=O)N[C@@H](CC(=O)O)C(=O)N[C@@H](Cc1c[nH]c2ccccc12)C(=O)N[C@H](C(=O)N[C@@H](C)C(N)=O)CSCCC3=O [Peptide 14] (HELM PEPTIDE1{A.C.I.R.E.R.C.W.D.L.K.E.N.D.W.C.A.[am]}|CHEM1{[O=C(CC[*:1])N1CN(C(=O)CC[*:2])CN(C(=O)CC[*:3])C1]}$PEPTIDE1,CHEM1,2:R3-1:R1|PEPTIDE1,CHEM1,7:R3-1:R2|PEPTIDE1,CHEM1,16:R3-1:R3$$$V2.0)	> 100000		
